Experimental data reported in patent US20230141101A1, “PDE4 INHIBITOR COMPOUND AND MEDICAL USE THEREOF” (Suzhou Longbotai Pharmaceuticals Co., Ltd., priority 2020, published 2023).
pIC50: −log10 of the molar value.

What was measured:
Format in all cases: biochemical
[1] = molecular target: T1, PDE4B1 (Homo sapiens, UniProt Q07343); experiment: PDE4 inhibitory activity assay (FAM-cAMP enzymatic reaction), PDE4B1
T1 construct: purchased BPS 60041
Method: (§1) The compounds of the present disclosure were tested for their inhibitory activity (IC50 value) against PDE4A1A, PDE4B1, and PDE4D2.
(§2) Positive compound: Trequinsin (Sigma, Cat No. T20S7).
(§3) Instrument: Wallac Victor Muti-lable counter (Pekin Elmer) Steps of assay:
(§4) PDE enzymatic reaction; • 1) PDE was dissolved in 1× reaction solution to prepare 2× enzyme solution; • 2) FAM-cAMP was dissolved in 1× reaction solution to prepare 2× substrate solution; • 3) Corresponding volume of the compound in DMSO was transferred to the reaction plate through Echo 550; • 4) 2× enzyme solution was added into the corresponding wells of the reaction plate and incubated with the compound solution for 15 minutes at room temperature; • 5) 2× substrate solution was added into the corresponding well of the reaction plate to initiate the reaction; • 6) After the reaction plate was incubated at room temperature for 30 min, the reaction was terminated by adding reaction stopping solution. The reaction plate was incubated at room temperature for another 60 minutes;
(§5) Inhibition rates were calculated with Excel; and IC50 for each compound was calculated with Graphpad prism.

[2] = molecular target: T2, PDE4A1A (Homo sapiens, UniProt P27815); experiment: PDE4 inhibitory activity assay (FAM-cAMP enzymatic reaction), PDE4A1A
T2 construct: purchased BPS 60040
Method: as §1, §2, §3, §4, §5

[3] = molecular target: PDE4D2 (Homo sapiens, UniProt Q08499); experiment: PDE4 inhibitory activity assay (FAM-cAMP enzymatic reaction), PDE4D2
Method: as §1, §2, §3, §4, §5

[4] = compared with Apremilast and Example 11 of WO2018036470 (WX011)

T2 sequence (P27815 1-647 isoform P27815-4): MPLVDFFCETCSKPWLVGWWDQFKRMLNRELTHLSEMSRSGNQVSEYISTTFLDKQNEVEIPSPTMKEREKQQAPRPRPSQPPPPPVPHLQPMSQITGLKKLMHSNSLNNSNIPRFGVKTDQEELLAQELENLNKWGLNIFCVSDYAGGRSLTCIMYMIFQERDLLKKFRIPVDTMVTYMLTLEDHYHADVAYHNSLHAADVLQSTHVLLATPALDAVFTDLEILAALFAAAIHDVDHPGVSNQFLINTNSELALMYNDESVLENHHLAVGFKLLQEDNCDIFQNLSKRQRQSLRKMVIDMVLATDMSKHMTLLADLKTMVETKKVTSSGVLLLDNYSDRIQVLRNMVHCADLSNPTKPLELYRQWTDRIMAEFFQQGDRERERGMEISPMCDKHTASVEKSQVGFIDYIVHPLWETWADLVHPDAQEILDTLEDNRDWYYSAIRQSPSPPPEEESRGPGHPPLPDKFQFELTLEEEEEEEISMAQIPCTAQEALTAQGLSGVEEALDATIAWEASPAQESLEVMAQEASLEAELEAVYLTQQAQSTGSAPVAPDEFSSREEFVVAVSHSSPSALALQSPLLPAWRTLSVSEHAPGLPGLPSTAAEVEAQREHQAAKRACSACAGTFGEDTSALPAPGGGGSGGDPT
T1 sequence (Q07343 whole entry): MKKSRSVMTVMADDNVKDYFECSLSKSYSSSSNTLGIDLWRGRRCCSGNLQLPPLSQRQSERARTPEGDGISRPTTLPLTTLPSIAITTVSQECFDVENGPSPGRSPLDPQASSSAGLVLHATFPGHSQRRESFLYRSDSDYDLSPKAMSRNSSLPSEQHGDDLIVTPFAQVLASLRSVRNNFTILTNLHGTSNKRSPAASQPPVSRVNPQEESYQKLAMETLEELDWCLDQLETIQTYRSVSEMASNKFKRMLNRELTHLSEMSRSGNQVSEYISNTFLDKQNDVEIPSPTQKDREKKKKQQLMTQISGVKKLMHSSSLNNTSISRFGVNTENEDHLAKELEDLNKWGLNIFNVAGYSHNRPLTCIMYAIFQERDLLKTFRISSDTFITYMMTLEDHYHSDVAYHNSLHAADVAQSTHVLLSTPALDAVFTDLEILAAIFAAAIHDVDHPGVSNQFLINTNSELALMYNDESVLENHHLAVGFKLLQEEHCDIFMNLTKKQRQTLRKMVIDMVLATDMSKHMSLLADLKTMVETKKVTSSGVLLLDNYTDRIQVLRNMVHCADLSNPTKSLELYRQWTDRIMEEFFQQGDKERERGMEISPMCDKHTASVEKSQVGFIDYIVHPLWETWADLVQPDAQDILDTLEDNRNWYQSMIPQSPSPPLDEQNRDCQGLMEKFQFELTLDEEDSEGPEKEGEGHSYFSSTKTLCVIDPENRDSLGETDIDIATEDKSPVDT
PDE4D2, sequence (Q08499 303-809): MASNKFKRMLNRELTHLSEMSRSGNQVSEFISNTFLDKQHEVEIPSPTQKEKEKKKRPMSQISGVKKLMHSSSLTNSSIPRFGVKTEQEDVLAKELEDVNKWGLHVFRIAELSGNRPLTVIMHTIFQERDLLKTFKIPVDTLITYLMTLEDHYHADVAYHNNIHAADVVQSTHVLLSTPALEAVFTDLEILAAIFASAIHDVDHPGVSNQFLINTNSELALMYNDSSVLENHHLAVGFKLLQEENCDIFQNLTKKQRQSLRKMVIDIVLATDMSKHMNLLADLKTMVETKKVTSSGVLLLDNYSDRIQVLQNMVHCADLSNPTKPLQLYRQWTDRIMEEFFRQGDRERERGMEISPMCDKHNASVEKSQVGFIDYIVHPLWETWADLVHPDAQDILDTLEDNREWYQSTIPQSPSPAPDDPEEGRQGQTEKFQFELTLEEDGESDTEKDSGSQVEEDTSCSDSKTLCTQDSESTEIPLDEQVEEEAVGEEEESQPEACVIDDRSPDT

| PDE4 B1 inhibitory effect at 20 nM [1] | PDE4 A1 inhibitory effect at 20 nM [2] | PDE4 D2 inhibitory effect at 20 nM [3] | pIC50 ([3]; read-out: PDE4 D2 inhibitory activity (IC50 value)) | Compound | inhibitory activity against PDE4B1 compared with Apremilast and WX011 [1, 4] | inhibitory activity against PDE4A1A compared with Apremilast and WX011 [2, 4] | inhibitory activity against PDE4D2 compared with Apremilast and WX011 [3, 4] |
| --- | --- | --- | --- | --- | --- | --- | --- |
| + | + | + |  | CCOc1nc([C@@H](CS(C)(=O)=O)n2c(=O)n(C)c3cc(-c4c(F)cccc4F)ccc32)ccc1OC [Ex. 155, (S)-5-(2,6-difluorophenyl)-1-(1-(6-ethoxy-5-methoxypyridin-2-yl)-2-(methylsulfonyl)ethyl)-3-methyl-1H-benzo[d]imidazol-2(3H)-one] |  |  |  |
| + | + | + |  | CCOc1nc([C@@H](CS(C)(=O)=O)n2c(=O)n(C)c3cc(-c4ccccc4C)ccc32)ccc1OC [Ex. 140, (S)-1-(1-(6-ethoxy-5-methoxypyridin-2-yl)-2-(methylsulfonyl)ethyl)-5-(o-methylphenyl)-3-methyl-1H-benzo[d]imidazol-2(3H)-one] |  |  |  |
| + | + | + |  | CCOc1nc([C@@H](CS(C)(=O)=O)n2c(=O)[nH]c3cc(-c4cccc(C)c4C)ccc32)ccc1OC [Ex. 166, (S)-5-(2,3-dimethylphenyl)-1-(1-(6-ethoxy-5-methoxypyridin-2-yl)-2-(methylsulfonyl)ethyl)-1H-benzo[d]imidazol-2(3H)-one] |  |  |  |
|  |  |  | 8.42 | CCOc1nc([C@@H](CS(C)(=O)=O)n2c(=O)[nH]c3c(C)c(-c4ccccc4C)cnc32)ccc1OC [Ex. 8, (S)-3-(1-(6-ethoxy-5-methoxypyridin-2-yl)-2-(methylsulfonyl)ethyl)-7-methyl-6-(o-methylphenyl)-1H-imidazo[4,5-b]pyridin-2(3H)-one] | significantly enhanced inhibitory activity | significantly enhanced inhibitory activity | significantly enhanced inhibitory activity |
| + | + | + |  | CCOc1nc([C@@H](CS(C)(=O)=O)n2c(=O)[nH]c3cc(-c4ccc(F)cc4C)ccc32)ccc1OC [Ex. 169, (S)-5-(4-fluoro-2-methylphenyl)-1-(1-(6-ethoxy-5-methoxypyridin-2-yl)-2-(methylsulfonyl)ethyl)-1H-benzo[d]imidazol-2(3H)-one] |  |  |  |
| + | + | + |  | CCOc1nc([C@@H](CS(C)(=O)=O)n2c(=O)n(C)c3cc(-c4ccccc4C(F)(F)F)ccc32)ccc1OC [Ex. 147, (S)-1-(1-(6-ethoxy-5-methoxypyridin-2-yl)-2-(methylsulfonyl)ethyl)-5-(2-(trifluoromethyl)phenyl)-3-methyl-1H-benzo[d]imidazol-2(3H)-one] |  |  |  |
| + | + | + |  | CCOc1nc([C@@H](CS(C)(=O)=O)n2c(=O)n(C)c3cc(-c4cc(OC)ccc4F)ccc32)ccc1OC [Ex. 182, (S)-5-(2-fluoro-5-methoxyphenyl)-1-(1-(6-ethoxy-5-methoxypyridin-2-yl)-2-(methylsulfonyl)ethyl)-3-methyl-1H-benzo[d]imidazol-2(3H)-one] |  |  |  |
| + | + | + |  | CCOc1nc([C@@H](CS(C)(=O)=O)n2c(=O)n(C)c3cc(-c4ccc(C)cc4C)ccc32)ccc1OC [Ex. 163, (S)-5-(2,4-dimethylphenyl)-1-(1-(6-ethoxy-5-methoxypyridin-2-yl)-2-(methylsulfonyl)ethyl)-3-methyl-1H-benzo[d]imidazol-2(3H)-one] |  |  |  |
| + | + | + |  | CCOc1nc([C@@H](CS(C)(=O)=O)n2c(=O)[nH]c3cc(-c4ccccc4C)ccc32)ccc1OC [Ex. 139, (S)-1-(1-(6-ethoxy-5-methoxypyridin-2-yl)-2-(methylsulfonyl)ethyl)-5-(o-methylphenyl)-1H-benzo[d]imidazol-2(3H)-one] |  |  |  |
| + | + | + |  | CCOc1nc([C@@H](CS(C)(=O)=O)n2c(=O)n(C)c3cc(-c4ccccc4)ccc32)ccc1OC [Ex. 131, (S)-1-(1-(6-ethoxy-5-methoxypyridin-2-yl)-2-(methylsulfonyl)ethyl)-5-phenyl-3-methyl-1H-benzo[d]imidazol-2(3H)-one] |  |  |  |

The remaining lines, values behind:

| Compound | PDE4 B1 inhibitory effect at 20 nM [1] | PDE4 A1 inhibitory effect at 20 nM [2] | PDE4 D2 inhibitory effect at 20 nM [3] | pIC50 ([3]; read-out: PDE4 D2 inhibitory activity (IC50 value)) | inhibitory activity against PDE4B1 compared with Apremilast and WX011 [1, 4] | inhibitory activity against PDE4A1A compared with Apremilast and WX011 [2, 4] | inhibitory activity against PDE4D2 compared with Apremilast and WX011 [3, 4] |
| --- | --- | --- | --- | --- | --- | --- | --- |
| CCOc1nc([C@H](CS(C)(=O)=O)N2Cc3cccc(NC(=O)CC)c3C2=O)ccc1OC [Ex. 220, (R)—N-(2-(1-(6-ethoxy-5-methoxypyridin-2-yl)-2-(methylsulfonyl)ethyl)-3-oxoisoindolin-4-yl)propionamide] | − | − | − |  |  |  |  |
| CCOc1nc([C@@H](CS(C)(=O)=O)N2C(=O)c3csc(NC(=O)C4CC4)c3C2=O)ccc1OC [Ex. 227, (S)—N-(5-(1-(6-ethoxy-5-methoxypyridin-2-yl)-2-(methylsulfonyl)ethyl)-4,6-dioxo-5,6-dihydro-4H-thieno[3,4-c]pyrrol-1-yl)cyclopropanecarboxamide] | + | + | + |  |  |  |  |
| CCOc1nc([C@@H](CS(C)(=O)=O)n2c(=O)[nH]c3cc(C(=O)OCC(F)(F)F)ccc32)ccc1OC [Ex. 214, (S)-2,2,2-trifluoroethyl 1-(1-(6-ethoxy-5-methoxypyridin-2-yl)-2-(methylsulfonyl)ethyl)-2-oxo-2,3-dihydro-1H-benzo[d]imidazole-5-carboxylate] | + | + | + |  |  |  |  |
| CCOc1nc([C@@H](CS(C)(=O)=O)N2C(=O)c3csc(NC(=O)CN(C)C)c3C2=O)ccc1OC [Ex. 228, (S)-2-(dimethylamino)-N-(5-(1-(6-ethoxy-5-methoxypyridin-2-yl)-2-(methylsulfonyl)ethyl)-4,6-dioxo-5,6-dihydro-4H-thieno[3,4-c]pyrrol-1-yl)acetamide] | + | + | + |  |  |  |  |
| CCOc1nc([C@@H](CS(C)(=O)=O)N2C(=O)c3csc(NC(=O)CC)c3C2=O)ccc1OC [Ex. 226, (S)—N-(5-(1-(6-ethoxy-5-methoxypyridin-2-yl)-2-(methylsulfonyl)ethyl)-4,6-dioxo-5,6-dihydro-4H-thieno[3,4-c]pyrrol-1-yl)propionamide] | + | + | + |  |  |  |  |
| CCOc1nc([C@H](CS(C)(=O)=O)n2c(=O)n(CC(F)(F)F)c3c(C)c(-c4ccccc4F)cnc32)ccc1OC [Ex. 52, (R)-3-(1-(6-ethoxy-5-methoxypyridin-2-yl)-2-(methylsulfonyl)ethyl)-6-(2-fluorophenyl)-7-methyl-1-(2,2,2-trifluoroethyl)-1H-imidazo[4,5-b]pyridin-2(3H)-one] | − | − | − |  |  |  |  |
| CCOc1nc([C@H](CS(C)(=O)=O)N2Cc3cccc(NC(=O)C4CC4)c3C2=O)ccc1OC [Ex. 218, (R)—N-(2-(1-(6-ethoxy-5-methoxypyridin-2-yl)-2-(methylsulfonyl)ethyl)-3-oxoisoindolin-4-yl)cyclopropanecarboxamide] | + | + | + |  |  |  |  |
